# Key:
# Assay type in all cases: biochemical
# IKKα = target: T1, IKKα (Homo sapiens, UniProt O15111); assay: kinase profiling, dose response IC50 (selectivity)
# T1 construct: gene CHUK
# T1 sequence (O15111 1-745): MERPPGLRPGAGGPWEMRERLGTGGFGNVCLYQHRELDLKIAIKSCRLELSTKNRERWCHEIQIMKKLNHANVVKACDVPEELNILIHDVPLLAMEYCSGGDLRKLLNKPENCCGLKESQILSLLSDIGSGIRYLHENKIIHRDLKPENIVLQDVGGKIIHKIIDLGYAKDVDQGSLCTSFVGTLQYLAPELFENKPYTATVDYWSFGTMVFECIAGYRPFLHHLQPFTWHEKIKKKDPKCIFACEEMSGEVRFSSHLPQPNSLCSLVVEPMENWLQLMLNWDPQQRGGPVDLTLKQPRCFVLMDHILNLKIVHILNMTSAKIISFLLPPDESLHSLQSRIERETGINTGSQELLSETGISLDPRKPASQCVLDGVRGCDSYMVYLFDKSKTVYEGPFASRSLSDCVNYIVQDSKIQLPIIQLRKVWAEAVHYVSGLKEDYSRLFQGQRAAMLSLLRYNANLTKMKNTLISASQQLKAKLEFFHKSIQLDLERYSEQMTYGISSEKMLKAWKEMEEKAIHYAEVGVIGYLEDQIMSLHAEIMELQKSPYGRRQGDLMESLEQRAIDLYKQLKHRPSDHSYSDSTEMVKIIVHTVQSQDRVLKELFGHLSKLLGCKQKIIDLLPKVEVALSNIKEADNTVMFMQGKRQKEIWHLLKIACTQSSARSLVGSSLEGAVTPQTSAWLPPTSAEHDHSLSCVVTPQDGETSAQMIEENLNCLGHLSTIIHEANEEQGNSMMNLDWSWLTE
# IκB kinase ε (IKKε) = target: T2, IκB kinase ε (IKKε) (Homo sapiens, UniProt Q14164); assay: kinase profiling, dose response IC50
# T2 construct: gene IKBKE
# T2 sequence (Q14164 1-716): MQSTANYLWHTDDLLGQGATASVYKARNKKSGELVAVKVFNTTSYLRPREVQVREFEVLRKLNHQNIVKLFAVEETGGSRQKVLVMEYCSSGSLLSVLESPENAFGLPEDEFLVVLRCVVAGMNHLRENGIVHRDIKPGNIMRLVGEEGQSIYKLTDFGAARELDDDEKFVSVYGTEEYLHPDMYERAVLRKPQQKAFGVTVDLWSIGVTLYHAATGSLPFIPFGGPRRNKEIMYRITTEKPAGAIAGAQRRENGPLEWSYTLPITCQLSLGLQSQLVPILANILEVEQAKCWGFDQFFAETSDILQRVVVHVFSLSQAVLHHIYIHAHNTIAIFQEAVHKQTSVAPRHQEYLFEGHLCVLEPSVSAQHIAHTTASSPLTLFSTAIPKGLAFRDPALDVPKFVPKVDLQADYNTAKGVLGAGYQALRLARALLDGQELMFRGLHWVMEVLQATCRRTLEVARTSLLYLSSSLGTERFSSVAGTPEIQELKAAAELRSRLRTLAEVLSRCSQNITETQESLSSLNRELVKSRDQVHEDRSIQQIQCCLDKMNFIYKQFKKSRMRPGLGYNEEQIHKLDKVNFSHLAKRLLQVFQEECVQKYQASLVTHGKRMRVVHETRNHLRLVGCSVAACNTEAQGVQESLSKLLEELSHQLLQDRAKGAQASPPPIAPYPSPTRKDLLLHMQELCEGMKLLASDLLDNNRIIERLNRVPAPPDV
# [1] = target: T3, TANK-binding kinase 1 (TBK1) (Homo sapiens, UniProt Q9UHD2); assay: kinase profiling, dose response IC50
# T3 sequence (Q9UHD2 1-729): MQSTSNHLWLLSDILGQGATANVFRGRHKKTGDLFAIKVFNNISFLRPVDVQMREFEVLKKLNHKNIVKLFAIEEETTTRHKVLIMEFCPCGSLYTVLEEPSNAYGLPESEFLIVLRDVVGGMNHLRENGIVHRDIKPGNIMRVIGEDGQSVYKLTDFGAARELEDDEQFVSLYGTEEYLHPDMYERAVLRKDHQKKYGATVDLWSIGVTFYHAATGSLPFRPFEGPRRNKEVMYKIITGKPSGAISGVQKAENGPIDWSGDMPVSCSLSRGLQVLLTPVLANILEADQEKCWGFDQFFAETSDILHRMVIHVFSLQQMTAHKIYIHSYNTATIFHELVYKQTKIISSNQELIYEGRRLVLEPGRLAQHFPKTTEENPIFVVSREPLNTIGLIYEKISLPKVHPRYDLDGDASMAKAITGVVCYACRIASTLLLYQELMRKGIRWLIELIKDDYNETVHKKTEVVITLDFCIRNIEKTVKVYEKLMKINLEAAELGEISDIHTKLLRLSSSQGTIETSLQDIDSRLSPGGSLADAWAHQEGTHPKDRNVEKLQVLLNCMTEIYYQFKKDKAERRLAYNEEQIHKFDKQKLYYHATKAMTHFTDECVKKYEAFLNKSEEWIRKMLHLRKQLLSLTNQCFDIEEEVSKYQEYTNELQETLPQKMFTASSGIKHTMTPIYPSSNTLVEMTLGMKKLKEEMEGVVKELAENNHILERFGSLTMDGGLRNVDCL
# IKKβ = target: T4, IKKβ (Homo sapiens, UniProt O14920); assay: kinase profiling, dose response IC50 (selectivity)
# T4 construct: gene IKBKB
# T4 sequence (O14920 1-756): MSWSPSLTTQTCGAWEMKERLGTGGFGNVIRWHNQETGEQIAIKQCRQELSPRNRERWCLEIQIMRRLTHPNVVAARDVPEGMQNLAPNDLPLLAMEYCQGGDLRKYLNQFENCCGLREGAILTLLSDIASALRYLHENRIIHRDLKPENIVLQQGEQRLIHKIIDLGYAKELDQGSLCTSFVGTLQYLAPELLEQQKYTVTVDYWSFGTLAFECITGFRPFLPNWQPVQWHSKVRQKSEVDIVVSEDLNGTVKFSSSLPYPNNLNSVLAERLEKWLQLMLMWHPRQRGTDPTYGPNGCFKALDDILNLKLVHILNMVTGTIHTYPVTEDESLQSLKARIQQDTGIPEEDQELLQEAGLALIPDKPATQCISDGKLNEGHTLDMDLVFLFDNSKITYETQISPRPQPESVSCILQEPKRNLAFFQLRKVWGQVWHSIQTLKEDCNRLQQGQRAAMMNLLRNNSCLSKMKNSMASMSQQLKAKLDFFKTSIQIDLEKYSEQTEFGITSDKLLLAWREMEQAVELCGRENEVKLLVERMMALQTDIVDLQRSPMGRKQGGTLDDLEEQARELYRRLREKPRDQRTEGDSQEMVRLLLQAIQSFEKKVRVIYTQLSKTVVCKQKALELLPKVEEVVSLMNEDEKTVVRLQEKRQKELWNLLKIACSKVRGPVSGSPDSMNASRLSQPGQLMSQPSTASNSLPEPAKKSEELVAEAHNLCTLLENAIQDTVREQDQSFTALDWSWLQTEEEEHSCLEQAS
smiles,measurement,setting,value
"O=C(O)/C=C/c1ccc2noc(-c3ccccc3)c2c1 [PIAA, (E)-3-(3-phenylbenzo[c]isoxazol-5-yl)acrylic acid]",IC50,IKKα,47.2 µM
same,IC50,IκB kinase ε (IKKε),~1.07 µM
same,IC50,[1],0.4 µM
same,IC50,IKKβ,50.5 µM

# Source: publication PMC6197228, “Inhibition of TBK1/IKKε Promotes Regeneration of Pancreatic β-cells” (Scientific Reports, 2018)
